Reference: ChEMBL document CHEMBL3137667, “[Drug-induced liver injury; fourteenth updated edition of the bibliographic database of liver injuries and related drugs]” (Gastroenterol Clin Biol, 2004)

Legend:
[1] = Highest frequency of moderate liver toxicity observed during clinical trials, expressed as a percentage. [column '% BIOL' in source]; settings: human
[2] = Highest frequency of acute liver toxicity observed during clinical trials, expressed as a percentage. [column '% AIGUE' in source]; settings: human
[3] = Comments (NB not yet translated). [column 'COMMENTAIRES' in source]; settings: human
[4] = Times to onset, minimal and maximal, observed in the indexed observations. [column 'DELAI' in source]; settings: human
[5] = human, serum
[6] = human, serum; remark: listed apart in the source
[7] = human
[8] = human; remark: listed apart in the source
[9] = human; remark: listed apart in the source
[10] = human, serum, 4383 h
[11] = human; remark: listed apart in the source
[12] = human; remark: listed apart in the source
[13] = human; remark: listed apart in the source
[14] = human; remark: listed apart in the source
[15] = human; remark: listed apart in the source
[16] = human; remark: listed apart in the source
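Throughout, for Hepatotoxicity (association with vascular disease): count of indexed literature references reporting vascular liver injury in humans, e.g. peliosis hepatitis, hepatic veno-occlusive disease or Budd-Chiari syndrome.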
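Throughout, for Hepatotoxicity (benign tumour): value is a count of indexed literature references citing a benign tumour confirmed by histopathology.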
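Throughout, for Hepatotoxicity (choleostasis): human cholestatic liver injury, shown by histopathology or by peak ALT or AST elevation over alkaline phosphatase ratio below 2, value counts indexed literature reports.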
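Throughout, for Hepatotoxicity (chronic liver disease): chronic liver injury confirmed by histopathology or persistently raised serum aminotransferase activity beyond 6 months, value given as the count of indexed literature references.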
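Throughout, for Hepatotoxicity (cirrhosis): value is a count of indexed literature references reporting cirrhosis confirmed by histopathology.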
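Throughout, for Hepatotoxicity (cytolytic): human cytolytic liver injury, shown by histopathology or by a ratio above 5 of peak ALT or AST elevation to alkaline phosphatase elevation, value counts indexed references.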
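Throughout, for Hepatotoxicity (granulomatous hepatitis): value is a count of indexed literature references reporting granulomatous liver disease confirmed by histopathology.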
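Throughout, for Hepatotoxicity (malignant tumour): malignant tumour confirmed by histopathology, value gives the count of indexed literature references reporting it.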
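Throughout, for Hepatotoxicity (severe hepatitis): human clinical data: severe hepatitis, meaning potentially life-threatening liver failure or clinically observed cases, the value counts how many indexed literature references report it.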
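Throughout, for Hepatotoxicity (steatosis): steatosis confirmed by histopathology, value is the count of indexed references.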

Row | Compound | Hepatotoxicity (moderate) [1] | Hepatotoxicity (acute) [2] | Hepatotoxicity (comment) [3] | Hepatotoxicity (time to onset) [4] | Hepatotoxicity (moderate) [5] | Hepatotoxicity (acute) [6] | Hepatotoxicity (cytolytic) [7] | Hepatotoxicity (choleostasis) [8] | Hepatotoxicity (severe hepatitis) [9] | Hepatotoxicity (chronic liver disease) [10] | Hepatotoxicity (cirrhosis) [11] | Hepatotoxicity (granulomatous hepatitis) [12] | Hepatotoxicity (association with vascular disease) [13] | Hepatotoxicity (steatosis) [14] | Hepatotoxicity (malignant tumour) [15] | Hepatotoxicity (benign tumour) [16] | Hepatotoxicity (moderate) ([1]; Liver) | Hepatotoxicity (acute) ([2]; Liver) | Hepatotoxicity (severe hepatitis) ([9]; Liver)
1 | C[C@]12CC[C@@H]3c4ccc(OS(=O)(=O)O)cc4CC[C@H]3[C@@H]1CCC2=O [ESTRONE SULFURIC ACID] | 22.9% | 0% | HNF | 3 months - 1 year | 5 | 1 | 0 | 1 | 0 | 0 | 0 | 0 | 0 | 0 | 0 | 1 | – | – | –
2 | CCc1cccc2c3c([nH]c12)C(CC)(CC(=O)O)OCC3 (stereo not drawn) [ETODOLAC] | 4% | 0% | AC_ANTI-N/-ML | 4 days - 16 weeks | 4 | 3 | 2 | 2 | 1 | 0 | 0 | 0 | 0 | 1 | 0 | 0 | – | – | –
3 | CC(=O)OCC(CCn1cnc2cnc(N)nc21)COC(C)=O [FAMCICLOVIR] | 0% | 0% | REACTIVATION_HVB | 12 weeks | 0 | 1 | 0 | 0 | 1 | 0 | 0 | 0 | 0 | 0 | 0 | 0 | – | – | –
4 | CC(C(=O)O)c1cccc(Oc2ccccc2)c1 (stereo not drawn) [FENOPROFEN] | 7% | 0% | RC/NAPROXENE | 1 week - 7 weeks | 1 | 3 | 2 | 1 | 0 | 0 | 0 | 0 | 0 | 0 | 0 | 0 | – | – | –
5 | Nc1nc(F)nc2c1ncn2[C@@H]1O[C@H](CO)[C@@H](O)[C@@H]1O [FLUDARABINE] | 42.9% | 0% | REACTIVATION_HVB | 8 months | 5 | 2 | 1 | 0 | 1 | 0 | 0 | 0 | 0 | 0 | 0 | 0 | – | – | –
6 | C[C@]1(O)CC[C@H]2[C@@H]3CCC4=CC(=O)CC[C@]4(C)[C@@]3(F)[C@@H](O)C[C@@]21C [FLUOXYMESTERONE] | 7.1% | 0% | ANGIOSARCOME PELIOSE | 6 months - 13 years | 2 | 2 | 0 | 2 | 0 | 0 | 0 | 0 | 6 | 0 | 3 | 1 | – | – | –
7 | CCC(=O)O[C@@H](O[P@](=O)(CCCCc1ccccc1)CC(=O)N1C[C@H](C2CCCCC2)C[C@H]1C(=O)O)C(C)C [FOSINOPRIL] | 1.2% | 0% | PERICHOLANGITE CHOLESTASE_PROLONGEE | 3 weeks - 3 months | 3 | 2 | 0 | 2 | 0 | 0 | 0 | 0 | 0 | 0 | 0 | 0 | – | – | –
8 | CCC1=C(C)CN(C(=O)NCCc2ccc(S(=O)(=O)NC(=O)N[C@H]3CC[C@H](C)CC3)cc2)C1=O [GLIMEPIRIDE] | 0% | 0% | CHOLANGIOLITE | 2.5 months - 3.3 months | 0 | 2 | 1 | 1 | 0 | 0 | 0 | 0 | 0 | 0 | 0 | 0 | – | – | –
9 | N=C(N)c1ccc(/C=C/c2ccc(C(=N)N)cc2O)cc1 [HYDROXYSTILBAMIDINE] | 0% | 0% | #S.REYE | 1 month | 0 | 1 | 0 | 0 | 0 | 0 | 0 | 0 | 0 | 1 | 0 | 0 | – | – | –
10 | CC(=O)[C@]1(O)Cc2c(O)c3c(c(O)c2[C@@H](O[C@H]2C[C@H](N)[C@H](O)[C@H](C)O2)C1)C(=O)c1ccccc1C3=O [IDARUBICIN] | 18.2% | 0% | HCF MVO REACTIVATION_HVB | 8 days - 6 months | 7 | 1 | 1 | 0 | 2 | 0 | 0 | 0 | 1 | 0 | 0 | 0 | – | – | –
11 | CCCCC1=NC2(CCCC2)C(=O)N1Cc1ccc(-c2ccccc2-c2nnn[nH]2)cc1 [IRBESARTAN] | – | – | CHOLESTASE_PROLONGEE | 5 days - 4 weeks | 2 | 2 | 0 | 2 | – | 0 | 0 | 0 | 0 | 0 | 0 | 0 | 4.3% | 0% | 0
12 | CC(=O)/N=c1/sc(S(N)(=O)=O)nn1C [METHAZOLAMIDE] | 0% | 0% | CHOLESTASE_PROLONGEE | 2 weeks | 0 | 1 | 0 | 1 | 0 | 0 | 0 | 0 | 0 | 0 | 0 | 0 | – | – | –
13 | CCOc1ccc2ccccc2c1C(=O)N[C@@H]1C(=O)N2[C@@H]1SC(C)(C)[C@@H]2C(=O)O [NAFCILLIN] | 25% | 3.1% | RC/OXACILLINE/CEFALOTINE | 1 day - 2 weeks | 4 | 5 | 1 | 3 | 0 | 0 | 0 | 0 | 0 | 0 | 0 | 0 | – | – | –
